Measurements taken from ChEMBL document CHEMBL1201862, “PubChem BioAssay data set” (2004).
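In this assay, cells in 96-well plates receive the compound at five concentrations for 48 hours. Endpoints are linearly interpolated between the surrounding concentrations. Abbreviation: GI50, concentration required for 50% inhibition of growth.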 Activity calls are given as the source filed them. Cut-off read from the data, not from the text of the source: active = GI50 up to about 1.1 µM and inactive = higher.

Key:
Assay in all cases: DTP human tumour cell line panel, 48 h
OVCAR-4 = tested on: OVCAR-4
MDA-N = tested on: MDA-N
HOP-92 = tested on: HOP-92
COLO 205 = tested on: COLO 205
ACHN = tested on: ACHN
Hs-578T = tested on: Hs-578T
MCF7 = tested on: MCF7
OVCAR-5 = tested on: OVCAR-5
KM12 = tested on: KM12
Malme-3M = tested on: Malme-3M
UACC-257 = tested on: UACC-257
RXF 393 = tested on: RXF 393
DU-145 = tested on: DU-145
HOP-62 = tested on: HOP-62
MOLT-4 = tested on: MOLT-4
SK-MEL-5 = tested on: SK-MEL-5
SF-539 = tested on: SF-539
NCI-H226 = tested on: NCI-H226
MDA-MB-231 = tested on: MDA-MB-231
NCI-H522 = tested on: NCI-H522

Row | SMILES | GI50 (OVCAR-4) | GI50 (MDA-N) | GI50 (HOP-92) | GI50 (COLO 205) | GI50 (ACHN) | GI50 (Hs-578T) | GI50 (MCF7) | GI50 (OVCAR-5) | GI50 (KM12) | GI50 (Malme-3M) | GI50 (UACC-257) | GI50 (RXF 393) | GI50 (DU-145) | GI50 (HOP-62) | GI50 (MOLT-4) | GI50 (SK-MEL-5) | GI50 (SF-539) | GI50 (NCI-H226) | GI50 (MDA-MB-231) | GI50 (NCI-H522)
1 | COc1cc(/C=C/c2ccc(O)c(OC)c2)cc(OC)c1 | 41.8 µM (inactive) | 17.4 µM (inactive) | 12.3 µM (inactive) | > 100 µM (inactive) | 22.2 µM (inactive) | 14.2 µM (inactive) | 26.2 µM (inactive) | 31.6 µM (inactive) | 20.8 µM (inactive) | 30.7 µM (inactive) | 24.8 µM (inactive) | 22.6 µM (inactive) | 23.1 µM (inactive) | 50.6 µM (inactive) | 20.9 µM (inactive) | 23.9 µM (inactive) | – | – | – | –
2 | Clc1ccc(-c2nc3ccc4ccccc4c3c3c2CCCC3)cc1 | – | > 100 µM (inactive) | – | > 100 µM (inactive) | – | > 100 µM (inactive) | > 100 µM (inactive) | 1.55 µM (inactive) | > 100 µM (inactive) | > 100 µM (inactive) | > 100 µM (inactive) | > 100 µM (inactive) | > 100 µM (inactive) | > 100 µM (inactive) | > 100 µM (inactive) | > 100 µM (inactive) | > 100 µM (inactive) | > 100 µM (inactive) | > 100 µM (inactive) | > 100 µM (inactive)
3 | CC1(C)OCC(C2CCC3(C)C4=CCC5C(C)(C)C(O)CCC5(C)C4CCC23C)CC(O)C1O (centres undefined) | 14.1 µM (inactive) | 17.9 µM (inactive) | 16.2 µM (inactive) | 22.5 µM (inactive) | 20.2 µM (inactive) | 19.9 µM (inactive) | 20.7 µM (inactive) | 19.1 µM (inactive) | 14.5 µM (inactive) | 15.6 µM (inactive) | 12.2 µM (inactive) | – | 14.7 µM (inactive) | – | 14.4 µM (inactive) | 15.1 µM (inactive) | 18.8 µM (inactive) | 17.3 µM (inactive) | 18.1 µM (inactive) | 20 µM (inactive)
4 | COc1ccc(/C=C2\C[C@H]3[C@@H]4CCC5=CC(=O)CC[C@]5(C)[C@H]4CC[C@]3(C)C2=O)cc1OC | 13.2 µM (inactive) | 5.94 µM (inactive) | 5.27 µM (inactive) | 3.1 µM (inactive) | 9.04 µM (inactive) | 45.8 µM (inactive) | 4.67 µM (inactive) | 32.4 µM (inactive) | 0.279 µM (active) | 8.65 µM (inactive) | 4.6 µM (inactive) | 18 µM (inactive) | 41.2 µM (inactive) | 0.332 µM (active) | 3.44 µM (inactive) | 2.46 µM (inactive) | 40 µM (inactive) | 11.1 µM (inactive) | – | 2.74 µM (inactive)
5 | [O-][S+](Nc1ccccc1)c1cccc(Cl)c1 (centres undefined) | – | > 100 µM (inactive) | – | > 100 µM (inactive) | 25.5 µM (inactive) | 86.3 µM (inactive) | > 100 µM (inactive) | > 100 µM (inactive) | 34.2 µM (inactive) | > 100 µM (inactive) | > 100 µM (inactive) | 51.1 µM (inactive) | 75 µM (inactive) | > 100 µM (inactive) | 34.7 µM (inactive) | 42.8 µM (inactive) | 27.5 µM (inactive) | > 100 µM (inactive) | 66.1 µM (inactive) | 57.3 µM (inactive)
6 | Cc1ccc(/C=N/NS(=O)(=O)c2ccc(/C=C3\NC(=O)NC3=O)cc2)cc1 | > 100 µM (inactive) | > 100 µM (inactive) | 53.7 µM (inactive) | > 100 µM (inactive) | > 100 µM (inactive) | 24.2 µM (inactive) | > 100 µM (inactive) | 35.9 µM (inactive) | > 100 µM (inactive) | > 100 µM (inactive) | > 100 µM (inactive) | > 100 µM (inactive) | > 100 µM (inactive) | 27.6 µM (inactive) | > 100 µM (inactive) | > 100 µM (inactive) | – | > 100 µM (inactive) | 37.1 µM (inactive) | –
7 | COc1cc(C2CC(C)(N3CCOCC3)Oc3cc4c(cc32)OCO4)cc(OC)c1OC (centres undefined) | 0.275 µM (active) | 0.0452 µM (active) | 2.67 µM (inactive) | 0.845 µM (active) | 0.243 µM (active) | 0.191 µM (active) | 0.458 µM (active) | > 100 µM (inactive) | 0.0634 µM (active) | 0.0726 µM (active) | > 50.1 µM (inactive) | – | 0.167 µM (active) | 0.27 µM (active) | 0.136 µM (active) | 0.103 µM (active) | 0.0619 µM (active) | 5.35 µM (inactive) | 0.0748 µM (active) | 0.226 µM (active)
8 | Cc1cc2nc3c(C#N)c4c(c(Nc5ccc(F)cc5)n3c2cc1C)CCC4 | > 100 µM (inactive) | > 100 µM (inactive) | – | > 100 µM (inactive) | > 100 µM (inactive) | 70.5 µM (inactive) | > 100 µM (inactive) | > 100 µM (inactive) | > 100 µM (inactive) | 52.2 µM (inactive) | > 100 µM (inactive) | > 100 µM (inactive) | > 100 µM (inactive) | > 100 µM (inactive) | > 100 µM (inactive) | > 100 µM (inactive) | > 100 µM (inactive) | > 100 µM (inactive) | > 100 µM (inactive) | 95.5 µM (inactive)
9 | O=C(NC(CO)Cc1ccc(Oc2cc(CC(CO)NC(=O)OCc3ccccc3)ccc2OC(=O)OCc2ccccc2)cc1)OCc1ccccc1 (centres undefined) | 18.8 µM (inactive) | 16.6 µM (inactive) | 19.5 µM (inactive) | 18.2 µM (inactive) | 19.9 µM (inactive) | 5.97 µM (inactive) | 11.8 µM (inactive) | 24.4 µM (inactive) | 17.1 µM (inactive) | 16.7 µM (inactive) | 15 µM (inactive) | – | 21 µM (inactive) | 20.2 µM (inactive) | 3.32 µM (inactive) | – | 20.1 µM (inactive) | 16.9 µM (inactive) | – | –
10 | COC(CC1(/C=C/O[Si](C(C)C)(C(C)C)C(C)C)C(=O)N(C)c2ccccc21)OC (centres undefined) | 34.5 µM (inactive) | > 100 µM (inactive) | > 100 µM (inactive) | 58.9 µM (inactive) | 62.5 µM (inactive) | 15.9 µM (inactive) | 36.8 µM (inactive) | > 100 µM (inactive) | 39.4 µM (inactive) | – | 47 µM (inactive) | 59.6 µM (inactive) | > 100 µM (inactive) | 58.1 µM (inactive) | 55.3 µM (inactive) | 36.8 µM (inactive) | – | 24.1 µM (inactive) | > 100 µM (inactive) | –
11 | O=C1CCCC2=C1C(c1ccc3c(c1)OCO3)Nc1ccc3ccccc3c12 (centres undefined) | – | 87.1 µM (inactive) | – | > 100 µM (inactive) | 16 µM (inactive) | 41.3 µM (inactive) | > 100 µM (inactive) | > 100 µM (inactive) | > 100 µM (inactive) | > 100 µM (inactive) | > 100 µM (inactive) | > 100 µM (inactive) | > 100 µM (inactive) | > 100 µM (inactive) | – | 93.5 µM (inactive) | > 100 µM (inactive) | > 100 µM (inactive) | > 100 µM (inactive) | > 100 µM (inactive)
12 | CCOP(=O)(OCC)C1=C(c2ccccc2)OC(N)=C(C#N)C1c1ccc(Cl)cc1 (centres undefined) | > 100 µM (inactive) | > 100 µM (inactive) | > 100 µM (inactive) | > 100 µM (inactive) | > 100 µM (inactive) | – | > 100 µM (inactive) | > 100 µM (inactive) | > 100 µM (inactive) | > 100 µM (inactive) | > 100 µM (inactive) | > 100 µM (inactive) | > 100 µM (inactive) | > 100 µM (inactive) | > 100 µM (inactive) | > 100 µM (inactive) | 66.1 µM (inactive) | > 100 µM (inactive) | > 100 µM (inactive) | 67.9 µM (inactive)
13 | Cn1ccc(C(=O)NCCCCCNC(=O)c2ccn(C)c(=O)c2O)c(O)c1=O | > 100 µM (inactive) | > 100 µM (inactive) | > 100 µM (inactive) | > 100 µM (inactive) | > 100 µM (inactive) | > 100 µM (inactive) | – | – | > 100 µM (inactive) | > 100 µM (inactive) | > 100 µM (inactive) | – | > 100 µM (inactive) | – | – | > 100 µM (inactive) | – | > 100 µM (inactive) | > 100 µM (inactive) | > 100 µM (inactive)
14 | O=C(O)COc1cc(-c2ccccc2)nc2ccccc12 | 77.1 µM (inactive) | 26.1 µM (inactive) | > 100 µM (inactive) | 51.1 µM (inactive) | > 100 µM (inactive) | 62.4 µM (inactive) | 49 µM (inactive) | > 100 µM (inactive) | 50.1 µM (inactive) | > 100 µM (inactive) | > 100 µM (inactive) | – | > 100 µM (inactive) | 95.9 µM (inactive) | 47.2 µM (inactive) | 33.9 µM (inactive) | 70.8 µM (inactive) | > 100 µM (inactive) | > 100 µM (inactive) | 77.4 µM (inactive)
15 | O=C1c2scc(-c3ccccc3)c2-n2cccc21 | 75.9 µM (inactive) | 16.1 µM (inactive) | – | 17.8 µM (inactive) | > 100 µM (inactive) | 4.59 µM (inactive) | 17.3 µM (inactive) | 21 µM (inactive) | 13.6 µM (inactive) | 16.4 µM (inactive) | 30.1 µM (inactive) | 14 µM (inactive) | 26.3 µM (inactive) | 16.3 µM (inactive) | 13.4 µM (inactive) | 15.1 µM (inactive) | – | 10.2 µM (inactive) | 14.8 µM (inactive) | 11.4 µM (inactive)
